Data from US9302993B2, “8-hydroxy quinoline derivatives” (PRANA BIOTECHNOLOGY LIMITED, priority 2002, dated 2016).
In brackets after ≈: the same amount, converted by molar mass. Several values for one entry are separate records, joined by “and”; a condition that tells them apart may be missing. Equal entries are not always repeated. Where two headings read alike, the source gives them in different places.

Legend:
Neuronal cortical cells = test: Assay for test compound cytoxicity, MTS (Assay 3(d)); assay type: cell-based, mouse
[1] = target: T1, hydrogen peroxide generation by Aβ in the presence of copper (Homo sapiens, UniProt P05067); test: Fluorometric H2O2 assay (Assay 1); assay type: biochemical; settings: DCF/HRP, 37 C 60 min, several values in one cell = repeat determinations
T1 construct: The reaction solutions contained Aβ 1-42 at concentrations in the range of 50 nM to 1 μM
How it was run: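 Aβ1-42 (50 nM–1 μM) with Cu-glycine (2 Cu-Gly : 1 Aβ) and a reductant (dopamine 5 μM or ascorbic acid) was incubated 60 min at 37 °C in PBS pH 7.4 with test compound. H2O2 was detected with 100 μM deacetylated DCF and 0.1 μM HRP by fluorescence against H2O2 standards.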

[2] = tested on: Neuronal cortical cells treated with Aβ1-42; test: Assay for Aβ neurotoxicity and Aβ neuroprotection (Assay 3(c)); assay type: cell-based, mouse; settings: 20 uM Aβ1-42, 4 days, MTS
Method: Media was then replaced with Neurobasal media (Invitrogen Life Technologies) and B27 supplements (Invitrogen Life Technologies). Cultures were maintained at 37° C. in 5% CO2. Prior to experimentation, the culture medium was replaced with Neurobasal media and B27 minus antioxidants (Invitrogen Life Technologies).
(c) Assay for Aβ Neurotoxicity and Aβ Neuroprotection
Neuronal cortical cells were cultured for five days as per Assay 2. On day six the neurobasal (NB) media (Invitrogen Life Technologies) and B27 supplement (Invitrogen Life Technologies) were replaced with NB media and B27 supplement (no antioxidants). On day six, test compounds were individually added to the neuronal cell cultures:
Aβ was initially dissolved in 20 mM NaOH to a concentration of 1 mM and sonicated for 5 minutes. The peptide was then diluted in H2O and 10×PBS to a final concentration of 200 uM Aβ in 1×PBS. The peptide was again sonicated for 5 minutes and then spun at 14000 rpm for 5 min and transferred to a fresh tube.
The test compounds were dissolved in 100% DMSO to a concentration of 2.5 mM (10 mM if excess compound was weighed out per vial—then diluted to 2.5 mM). […] Test compounds were not added directly to cells, instead they were added to a 48 well ‘Drug Plate’ as comprised below:
The Drug Plate was incubated at 37° C. for 15 mins. 200 ul of each well was added in triplicate to the corresponding cell plate. The cell plate was incubated at 37 C, for 4 days.
On the 4th day after treating the cells the assay is completed by adding MTS to the cells.

[3] = tested on: Aβ in extract of tissue from post mortem human AD brain; test: Human brain amyloid solubilisation assay (Assay 9, BAS); assay type: biochemical
Method: Assay 9. Human Brain Amyloid Solubilisation Assay
This assay was performed in order to assess the ability of a test compound to mobilise Aβ from the insoluble to the soluble phase of an extract of tissue from post mortem human AD brain.
Up to 0.5 g of plaque-bearing cortex without meninges was homogenized using a DIAX 900 homogenizer (Heudolph and Co, Kelheim, Germany) or other suitable device for three 30-second periods at full speed in 2 ml of ice-cold phosphate-buffered saline, pH 7.4. To obtain the phosphate-buffered saline-extractable fraction, the homogenate was centrifuged at 100,000×g for 30 min and the supernatant removed. Alternatively, the tissue was freeze dried then pulverised to form a powder which was then weighed out into aliquots for extraction as above. Supernatant, either freeze-dried and resuspended or in unconcentrated form, was dissolved in 200 μl of Tris-Tricine sodium dodecyl sulfate (SDS) sample buffer pH 8.3 containing 8% SDS, 10% 2-mercaptoethanol. Aliquots (10 μl) were then boiled for 10 minutes before SDS-polyacrylamide gel electrophoresis. The insoluble fraction of the cortical samples was obtained by resuspending the initial pelleted sample in 1 ml of phosphate-buffered saline. A 50-μl aliquot of this suspension was then boiled in […] of sample buffer as above.
Tris-Tricine polyacrylamide gel electrophoresis was performed by loading appropriately diluted samples on to 10% to 20% gradient gels (Novex, San Diego, Calif.) followed by transfer on to 0.2-μm nitrocellulose membrane (Bio-Rad, Hercules, Calif.). Aβ was detected by using monoclonal antibody W02, which detects residues 5 through 8, […] (or another suitable antibody) in conjunction with horseradish peroxidase-conjugated rabbit anti-mouse IgG (Dako, Denmark), and visualized by using enhanced chemiluminescence (eg ECL; Amersham Life Science, Buckinghamshire, UK). Each gel included three lanes containing 0.5, 1, and 2 ng of synthetic Aβ40 (Keck Laboratory, Yale University, New Haven, Conn.) as reference standards.
Blot films were scanned by using a suitable imaging system such as the UVP gel documentation system, and densitometry performed using suitable software, eg UVP Labworks. The dynamic range of the film/scanner was determined by using a step tablet (No. 911ST600, Kodak, Rochester N.Y.), a calibrated film exposed by the manufacturer to provided steps of known increasing intensity. The quantifiable range of signal intensity for densitometric analysis of the mono- and dimeric Aβ bands was based on the comparison with a curve obtained by scanning and densitometry of the step tablet.
All samples were analysed at least twice, and gel loadings and dilutions were adjusted to fit within the quantifiable region of the standard curve. […] The insoluble Aβ being comprised of the pelletable fraction derived from the insoluble amyloid plaque from the above cortical samples and the soluble fraction comprising monomeric and/or oligomeric soluble Aβ.

APP2576 transgenic mouse [4] = test: Transgenic mouse brain immunohistochemistry, plaque abundance (Assay 15); assay type: in vivo
From the text: Assay 15. Transgenic Mouse Brain Immunohistochemistry
The APP2576 transgenic mouse (Hsiao et al., 1996) as referred to in Assay 11 were utilized in this assay. The contralateral formalin-fixed mouse brain tissue was coronally cut. Sections (10 μm) were taken from the corresponding sites and treated with 80% formic acid for antigen retrieval. The primary antibody used was monoclonal antibody 1E8, which recognizes epitopes between residues 18 and 22 of Aβ (SmithKline Beecham, UK). Immunoreactivity was developed with secondary antibody linked to horseradish peroxidase (using a 3,39-diaminobenzidinechromagen) (Dako) and alkaline phosphatase (using 5-bromo-4-chloro 3-indoxyl phosphate and nitroblue tetrazolium chloride chromagen) (Dako). Plaque abundance per section was assessed by two operators blinded to treatment according to the following scale:
1=plaques present but very sparse
2=several plaques present
3=numerous plaques visible in restricted areas
4=plaques abundant and not restricted to any particular area.
Intermediate values eg 2.5 were assigned where applicable.
Students' t ‘test was used for comparisons between groups.

[5] = Turbidimetric solubility measurements (Assay 13); assay type: physicochemical; settings: kinetic from dmso stock, 1% DMSO, nephelometry
Method: Turbidimetric Solubility Measurements
The solubility estimate was measured at both pH 2.0 and pH 6.5. This is within the pH range that can be anticipated along the proximal gastrointestinal tract in humans.
The compounds were dissolved in DMSO to appropriate concentrations and then spiked into either 0.01M HCl (approx. pH=2.0) or pH 6.5 isotonic phosphate buffer, the final DMSO concentration being 1%. Samples were then analysed via Nephelometry to determine a solubility range. [as per D. Bevan and R. S. Lloyd, Anal. Chem. 2000, 72, 1781-1787].

[6] = E Log D, chromatographic method (Assay 13); assay type: physicochemical; settings: SUPELCOSIL LC-ABZ column with octanol saturated mobile phase, pH 7.4; read-out: E Log D7.4
Method: Effective Log D values were measured using a chromatographic method employing a SUPELCOSIL LC-ABZ column using an octanol saturated mobile phase at pH 7.4.

APP2576 transgenic mouse [7] = test: Effect of administration of test compounds on Aβ deposits in transgenic animals (Assay 11); assay type: in vivo; set-up: concentration or dose not given beside the values; settings: transgenic mouse brains
[8] = BL6J×129sv, mouse, 4 days, 1 uM
[9] = BL6J×129sv, mouse, 4 days, 10 uM
[10] = Aβ 1-42 with Cu-Gly, read-out: Peroxide IC50
[11] = solubilising plaques relative to PBS
[12] = Peroxide IC50, Aβ 1-42 with Cu-Gly

T1 sequence (P05067 672-713 limits assumed): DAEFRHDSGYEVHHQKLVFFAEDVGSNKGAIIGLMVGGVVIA

Row | Structure (SMILES) | Test Compound Cytoxicity 0.1 um (Neuronal cortical cells; BL6J×129sv, mouse, 4 days) | Test Compound Cytoxicity 1 uM (Neuronal cortical cells; [8]) | Test Compound Cytoxicity 10 uM (Neuronal cortical cells; [9]) | IC50 [1, 10] | % inhibition Abeta toxicity [2] | BAS Score [3, 11] | Viable 10 uM (Neuronal cortical cells; [9]) | other results
1 | COc1cccc(-c2cc(Cl)c3cccnc3c2O)c1 [compound 810] | 100% | 85 | 57 | > 10000 nM | 11% | + | – | –
2 | O=C(NCCc1ccccn1)c1ccc2cccc(O)c2n1 [compound 950] | 95% | 88 | 89 | 250 nM | 5% | + | 92.8 | –
3 | Oc1c(I)cc(Cl)c2cccnc12 [compound 1, clioquinol, reference compound] | 78% | 90 | 77 | 400 to 500 nM | 16% | ++ | – | –
4 | Nc1ccc2cccc(O)c2n1 [compound 54] | – | – | – | – | 100% | – | – | Cell viability (% viable cells, MTS) (Neuronal cortical cells; 1 uM, 4 days, in %): 97; Viable 10 uM (Neuronal cortical cells; 10 uM test compound, repeated lines = repeat determinations, in %): 99.57; Cell viability (% viable cells, MTS) (Neuronal cortical cells; 10 uM, 4 days, in %): 61; Cell viability (% viable cells, MTS) (Neuronal cortical cells; 0.1 um, 4 days): 89%; IC50 [1, 12]: 1000 nM; BAS Score [3]: +
5 | Oc1c(Br)cc(-c2ccccc2)c2cccnc12 [compound 806] | 99% | 78 | 38 | < 1200 nM | 36% | ++ | – | –
6 | O=S(=O)(O)c1ccc(O)c2ncccc12 [compound 41] | 95% | 100 | 100 | – | 12% | + | 81.33 | IC50 [1, 12]: 500 nM
7 | Oc1ccc(/C=C/c2ccc3cccc(O)c3n2)cc1 [compound 89] | 87% | 92 | 101 | 3000 nM | −31% | + | 74.28 | –
8 | O=C(NCCc1c[nH]cn1)c1ccc2cccc(O)c2n1 [compound 948] | 100% | 79 | 85 | 190 nM | 9% | + | 106.66 | –
9 | Oc1c(Cl)cc(Cl)c2ccc(-c3ccccn3)nc12 [compound 1052, 5,7-dichloro-8-hydroxy-2-(2-pyridyl)quinoline] | – | 63 | 32 | – | 19% | + | – | % difference from control (sham treated animal) (APP2576 transgenic mouse [4]; plaque score): −8%; Mean plaque score (APP2576 transgenic mouse [4]; scale 0 to 4): 3.2; solubility ([5]; aqueous buffer, pH 6.5 isotonic phosphate buffer, read-out: Solubility pH 6.5): < 3.1 µg/mL; solubility ([5]; simulated gastric fluid, 0.01M HCl (approx. pH 2.0), read-out: Solubility (μg/mL) 0.01M HCl): 6.3 to 12.5 µg/mL (≈ 21.6 to 42.9 µM); chromatographic logD [6]: 2.85; Insoluble fraction. % change compared with control. (APP2576 transgenic mouse [7]; insoluble Aβ): −22%; Soluble fraction. % change compared with control. (APP2576 transgenic mouse [7]; soluble Aβ): negligible
10 | CN(c1ccc2cccc(O)c2n1)c1ccc2cccc(O)c2n1 [compound 56] | 108% | 74 | 31 | 700 nM | 17% | + | – | –
11 | Oc1c(Cl)cc(Cl)c2cccnc12 [compound 45] | 100% | 92 | 67 | 700 nM | 28% | ++ | – | –
12 | O=C(Nc1nccs1)c1ccc2cccc(O)c2n1 [compound 952] | 98% | 91 | 53 | < 810 nM | 13% | + | 99.52 | –
13 | Cc1cnc(NC(=O)c2ccc3cccc(O)c3n2)s1 [compound 953] | 101% | 85 | 53 | < 4240 nM and 620 nM | 25% | + | 67.8 | –
14 | CCCCN(c1ccc2cccc(O)c2n1)c1ccc2cccc(O)c2n1 [compound 53] | 96% | 95 | 100 | 300 nM | −75% | + | 95.8 | –
15 | Cc1ccccc1-c1cc(Cl)c2cccnc2c1O [compound 854] | 94% | 81 | 36 | < 780 nM | 22% | + | – | –
